In US20100267734A1, “N-[(3,5-DICHLOROPHENYL)METHYL]-2-(4-METHYL-1-PIPERAZINYL)-2-(1-NAPHTHALENYL)ETHANAMIDE AS GHRELIN RECEPTOR MODULATOR” (Glaxo Group Limited, priority 2007, published 2010):
Where a name gives a salt, the structure may show the parent alone.

Legend:
[1] = biological target: T1, Human GHSR (Homo sapiens, UniProt Q92847); experiment: GHS-R GTPγS functional antagonist assay; type: biochemical; set-up: The full-length gene was transferred into pCDN for expression analysis; expressed in transfected cells; host or cells: CHO cells (electroporated, pCDN) or HEK293T cells (transient, pcDNA3); membranes prepared from the cultured cells; conditions: membranes of HEK293T cells transiently expressing GHS-R; human Ghrelin at EC80; [35S]GTPγS SPA
Procedure: Human GHS-R was cloned from human hypothalamus cDNA and TOPO Ta cloned into pCR2.1. The sequence was confirmed. The full-length gene was transferred into pCDN for expression analysis. The sequence was confirmed again and the plasmid was electroporated into CHO cells. The clones were screened by FLIPR.
HEK293T cells (HEK293 cells stably expressing the SV40 large T-antigen) were maintained in DMEM containing 10% (v/v) newborn calf serum and 2 mM glutamine. Cells were seeded in 60 mm culture dishes and grown to 60-80% confluency (18-24 h) prior to transfection with pcDNA3 containing the relevant DNA species using Lipofectamine reagent. […]
The plate was then incubated on a shaker at room temperature for 30 mins followed by centrifugation for 5 mins at 1500 rpm. The plate was read between 3 and 6 hours after completion of centrifuge run in a Wallac Microbeta counter on a 1 min normalised tritium count protocol. Data was analysed using a 4-parameter logistic equation. […]
Protocol as described above for functional agonist assay, except prior to addition of the [35-S], 10 ul of human Ghrelin solution in assay buffer was added to give a final concentration equating to EC80 (determined for each assay).

[2] = biological target: T1, Human GHSR; experiment: GHSR Antagonist BACMAM FLIPR Assay (Method B); type: cell-based; set-up: The full-length gene was transferred into pCDN for expression analysis; expressed in transfected cells; host or cells: U2OS cells transduced with human GHSR BacMam virus (pFastBacmam, CMV promoter); conditions: U2OS cells transduced with human GHSR BACMAM virus, EC80 hGhrelin, accurate to within ±0.5
From the text: Human GHS-R was cloned from human hypothalamus cDNA and TOPO Ta cloned into pCR2.1. The sequence was confirmed. The full-length gene was transferred into pCDN for expression analysis. The sequence was confirmed again and the plasmid was electroporated into CHO cells. The clones were screened by FLIPR. The open reading frame of GHS-R was transferred from pCDN into pFastBacmam vector. This vector was used to generate recombinant baculoviruses in which the insect cell-specific polyhedrin promoter has been replaced with a mammalian cell-active promoter, in this case CMV. This was then used with the Bac to Bac expression system (Invitrogen). Briefly the vector was transformed into DH10 bac E. coli and the bacmid isolated from the transformed cells. The bacmid was then transfected into Sf9 insect cells grown in ExCell 420 (JRH) medium in 6-well dishes for the production of recombinant baculovirus particules. 24 hours prior to assay U2OS cells at confluence 100% were harvested and spun down. The supernatant was removed and the cells resuspended in media (DMEM+10% FBS+1% L-Glutamine). […] Human GHSR BACMAM virus was added to the cell suspension at an appropriate % volume (calculated for individual batches of BACMAM virus as viral titres vary). […] Maximum changes in fluorescence were plotted and curves fitted using a 4-parameter logistic equation to generate pIC50 values.

[3] = biological target: T1, Human GHSR; experiment: GHSR Agonist BACMAM FLIPR Assay (Method Y); type: cell-based; set-up: The full-length gene was transferred into pCDN for expression analysis; expressed in transfected cells; host or cells: U2OS cells transduced with human GHSR BacMam virus (pFastBacmam, CMV promoter); conditions: U2OS cells transduced with human GHSR BACMAM virus, accurate to within ±0.5
From the text: Human GHS-R was cloned from human hypothalamus cDNA and TOPO Ta cloned into pCR2.1. The sequence was confirmed. The full-length gene was transferred into pCDN for expression analysis. The sequence was confirmed again and the plasmid was electroporated into CHO cells. The clones were screened by FLIPR. The open reading frame of GHS-R was transferred from pCDN into pFastBacmam vector. This vector was used to generate recombinant baculoviruses in which the insect cell-specific polyhedrin promoter has been replaced with a mammalian cell-active promoter, in this case CMV. This was then used with the Bac to Bac expression system (Invitrogen). Briefly the vector was transformed into DH10 bac E. coli and the bacmid isolated from the transformed cells. […] Human GHSR BACMAM virus was added to the cell suspension at an appropriate % volume (calculated for individual batches of BACMAM virus as viral titres vary). […] The plates were placed in a FLuorimetric Imaging Plate Reader (FLIPR, Molecular Devices) where 10 μl of compound was added to the cells and fluorescence measurements were taken. […] Intrinsic activity of the compounds was calculated by using the maximum asymptote of it's concentration response curve relative to the maximum asymptote of the hGhrelin concentration response curve.

T1 sequence (Q92847 whole entry): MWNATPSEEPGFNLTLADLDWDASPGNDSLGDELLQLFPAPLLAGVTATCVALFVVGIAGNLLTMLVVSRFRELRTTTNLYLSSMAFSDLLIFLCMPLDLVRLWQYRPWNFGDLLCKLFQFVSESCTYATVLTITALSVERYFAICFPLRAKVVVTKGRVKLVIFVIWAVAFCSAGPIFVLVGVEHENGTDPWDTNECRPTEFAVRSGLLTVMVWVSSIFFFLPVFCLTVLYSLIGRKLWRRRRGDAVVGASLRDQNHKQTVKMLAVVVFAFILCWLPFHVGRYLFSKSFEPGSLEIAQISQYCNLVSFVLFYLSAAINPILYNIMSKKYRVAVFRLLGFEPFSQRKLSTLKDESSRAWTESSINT

SMILES | Ki [1] [nM] | IC50 [2] [nM] | EC50 [3] [nM]
CN1CCN(C(C(=O)NCc2cc(Cl)cc(Cl)c2)c2cccc3ccccc23)CC1 (racemic) [Compound 1, (±)-N-[(3,5-dichlorophenyl)methyl]-2-(4-methyl-1-piperazinyl)-2-(1-naphthalenyl)ethanamide] | < 10 | – | –
CN1CCN([C@@H](C(=O)NCc2cc(Cl)cc(Cl)c2)c2cccc3ccccc23)CC1 [Compound 3, (2R)-N-[(3,5-dichlorophenyl)methyl]-2-(4-methyl-1-piperazinyl)-2-(1-naphthalenyl)ethanamide hydrochloride] | < 10 | 10 | > 2000
